Like-named read-outs stand apart in the source and are kept apart here. Marks after values point to notes of the source that are not given here.
How the values were obtained:
MDA-MB-453 cells = assay type: cell-based, human
Method: RNA was isolated as previously described. […] Total RNA (8 μg) was reverse transcribed with T7-(dT)24 primer and Super Script III reverse transcriptase (Invitrogen). After purification, cDNA was in vitro transcribed into biotin labeled antisense cRNA with the BioArray high yield RNA transcript labeling kit (Enzo Life Sciences; Farmingdale, N.Y.), according to a modified Affymetrix protocol. cRNA (15 μg) was fragmented into the final probe and hybridized to human U133A 2.0 gene chips (Affymetrix, Inc.; Santa Clara, Calif.), comprised of more than 22,000 probe sets. The Institute for Cancer Genetics Core Facility at the Columbia Genome Center performed the hybridization.
Two or three replicates of each microarray were performed to determine intrasample variation. To bolster the robustness of the analysis, the effects of 4 doses for 2 time periods were examined.
All analyses were performed using the AffyLimmaGUI package in the open-source Bioconductor suite, as previously described. […] Variability is reported in terms of a p-value representing the probability that differences between treated and untreated could occur by chance. The p-value takes into account both the variability within groups (in this case the groups are treated and control) and the variability between groups.

Na^+-K^+-ATPase = experiment: Enzymatic assay of adenosine 5′-triphosphatase; assay type: biochemical; conditions: 20 μM
Method: Enzymatic assay of adenosine 5′-triphosphatase. The enzymatic assay of ATPase (adenosine 5′-triphosphatase, EC 3.6.1.3) followed the Sigma Prod. […] [P] was determined by the Taussky-Shorr method.

[1] = tested on: cyclin D1 and p21 mRNA in MDA-MB-453 cells; experiment: RT-PCR of mRNA; assay type: cell-based, human
[2] = Pharmacokinetic analysis of actein in serum and urine (HPLC-MS); assay type: in vivo; conditions: female, Sprague-Dawley, rat, oral, rats, 35.7 mg/kg
Method: In this study two groups of 8 female rats were each treated with: 1) 35.7 mg/kg of actein, and 2) 1/5 this dose, 7.14 mg/kg, by gastric intubation. A control group of 8 female rats was treated by gastric intubation with 1 cc of water. Afresh solution of actein, suspended in water, was prepared just before the treatment.
Blood and urine collection: To determine the serum concentration of actein at different times during 24 hours, blood was sequentially collected from 4 animals of the group treated with 35.7 mg/kg actein at intervals of 0, 5, 15, 30, 60 minutes and 2, 4, 6, 8 and 24 hours after the administration of actein. For the 24 hour period, animals were starved with free access to water. Blood samples (0.5 ml) were collected through contusion of the retrobulbar plexus with a siliconated glass Pasteur pipette after anaesthetization with ethyl ether. Immediately after sacrifice, blood was drawn from the portal vein with a sterile syringe into vials without anticlotting agents. Ten minutes after each sampling (the time necessary for the formation of the clot), blood was centrifuged at 1500 g for 10 minutes, then serum was stored in cryogenic screw cap vials at −70° C. […]
HPLC-MS analysis was performed, in duplicate, by Chromadex to determine the presence and quantity of actein in serum and urine samples from Sprague-Dawley rats treated with 35.7 mg/kg actein. […]

[3] = tested on: rat liver gene expression
[4] = rat liver, actein 35.7 mg/kg, 6 hours, vs control
[5] = rat liver, actein 35.7 mg/kg, 24 hours, vs control

Compound: C[C@H]1O[C@@H](O[C@H]2[C@@H](O)C[C@H](O[C@H]3[C@@H](O)C[C@H](O[C@H]4CC[C@@]5(C)[C@H](CC[C@@H]6[C@@H]5CC[C@]5(C)[C@@H](C7=CC(=O)OC7)CC[C@]65O)C4)O[C@@H]3C)O[C@@H]2C)C[C@H](O)[C@@H]1O [digitoxin]
- number of genes with significantly altered expression (MDA-MB-453 cells; digitoxin 20 ng/ml, 24 hours): 22
- number of genes altered (MDA-MB-453 cells; digitoxin 0.1 μg/mL, 6 hours): 2
- number of genes altered (MDA-MB-453 cells; digitoxin 0.1 μg/mL, 24 hours): 8
- number of genes altered (MDA-MB-453 cells; digitoxin 0.2 μg/mL, 6 hours): 6
- number of genes altered (MDA-MB-453 cells; digitoxin 0.2 μg/mL, 24 hours): 88
- number of genes altered (MDA-MB-453 cells; digitoxin 1 μg/mL, 6 hours): 87
- number of genes altered (MDA-MB-453 cells; digitoxin 1 μg/mL, 24 hours): 1491
- percent inhibition of in vitro Na^+-K^+-ATPase activity (Na^+-K^+-ATPase): 35.2%

Compound: CC(=O)O[C@@H]1C[C@@]23C[C@@]24CC[C@H](O[C@@H]2OC[C@@H](O)[C@H](O)[C@H]2O)C(C)(C)[C@@H]4CC[C@H]3[C@]2(C)C[C@@H]3O[C@]4(C[C@@H](C)[C@@H]3[C@@]12C)O[C@H](O)[C@@]1(C)O[C@@H]41 [actein]
- p21 mRNA (RT-PCR) ([1]; 3 h, 20 μg/ml): 0.92 fold
- p21 mRNA (RT-PCR) ([1]; 3 h, 40 μg/ml): 1.03 fold
- p21 mRNA (RT-PCR) ([1]; 10 h, 20 μg/ml): 1.06 fold
- p21 mRNA (RT-PCR) ([1]; 10 h, 40 μg/ml): 1.19 fold
- p21 mRNA (RT-PCR) ([1]; 24 h, 20 μg/ml): 0.92 fold
- p21 mRNA (RT-PCR) ([1]; 24 h, 40 μg/ml): 1.46 fold
- concentration at 24 h ([2]; serum, 24 hours, read-out: level of actein in serum): 102 ng/mL
- concentration at 24 h ([2]; urine, 24 h, read-out: level of actein in urine): 777 ng/mL
- ATP synthase expression, fold-change (log) ([3]; actein 35.7 mg/kg, 6 hours): −0.05
- number of genes with significant change (p<0.05) in transcription level ([3]; actein 35.7 mg/kg, 6 hours): 297
- erythropoietin expression, fold-change (log) ([3]; actein 35.7 mg/kg, 6 hours, rat liver): −0.22
- C4BP expression, fold-change (log) ([3]; actein 35.7 mg/kg, 24 hours): 0.17
- CXCL1 expression, fold-change (log) ([3]; actein 35.7 mg/kg, 24 hours): 0.44
- FDPS expression, fold-change (log) ([3]; actein 35.7 mg/kg, 24 hours): 0.34
- HMGCS expression, fold-change (log) ([3]; actein 35.7 mg/kg, 24 hours): 0.36
- IPP expression, fold-change (log) ([3]; actein 35.7 mg/kg, 24 hours): 0.80
- S100A9 expression, fold-change (log) ([3]; actein 35.7 mg/kg, 24 hours): 0.79
- SCD1 expression, fold-change (log) ([3]; actein 35.7 mg/kg, 24 hours): −1.28
- number of genes with significant change (p<0.05) in transcription level ([3]; actein 35.7 mg/kg, 24 hours): 1335
- PPS, Hepatic inflammatory infiltrate, centrilobular signature ([3]; female, Sprague-Dawley, rat, in vivo, 6 h): 0.58
- PPS, Hepatic inflammatory infiltrate, early gene expression signature ([3]; female, Sprague-Dawley, rat, in vivo, 24 h): 0.56
- Fold-change (log) ATP5I (1387019_at) [3, 4]: −0.05*
- Fold-change (log) EPO (1387308_at) [3, 4]: −0.22^†
- Fold-change (log) ACOX1 (1367680_at) [3, 5]: −0.17*
- Fold-change (log) C4BP, Complement component 4 binding protein, alpha (1369764_at) [3, 5]: 0.09*
- Fold-change (log) C4BP, Complement component 4 binding protein, beta (1368695_at) [3, 5]: 0.17*
- Fold-change (log) C5 (1383425_at) [3, 5]: 0.18*
- Fold-change (log) CD44 (1387952_a_at) [3, 5]: 0.08*
- Fold-change (log) CXCL1 (1387316_at) [3, 5]: 0.44*
- Fold-change (log) FDPS (1367667_at) [3, 5]: 0.34*
- Fold-change (log) HMGCS1 (1367932_at) [3, 5]: 0.36^†
- Fold-change (log) IPP (1388872_at) [3, 5]: 0.80*
- Fold-change (log) MG3PDH (1387670_at) [3, 5]: −0.38*
- Fold-change (log) S100A9 (1387125_at) [3, 5]: 0.79*
- Fold-change (log) SAP (1367804_at) [3, 5]: −0.04*
- Fold-change (log) SCD1 (1370355_at) [3, 5]: −1.28*

From patent publication US20120208776A1 (priority 2002, published 2012)
